According to patent US9598387B2 (Southern Research Institute, priority 2012, dated 2017):

Key:
human D2 receptors = human D2 receptors (Homo sapiens (Human), UniProt P14416); test: D2 Mitogenesis Functional Assay (3H-thymidine uptake, CHOp-D2 cells); assay type: cell-based
D3R [1] = target: T1, D3R (Homo sapiens (Human), UniProt P35462); test: D3 Mitogenesis Functional Assay (3H-thymidine uptake, CHOp-D3 cells); assay type: cell-based
How it was run: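 CHO cells expressing human D3, serum-starved 24 h, then given compound (agonist mode) or antagonist plus 30 nM quinpirole final for 16 h at 37 °C. A 2 h [3H]thymidine pulse was used for uptake.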

[2] = target: human D2 dopamine receptors (Homo sapiens (Human), UniProt P14416); test: Whole Cell Adenylyl Cyclase Assay, D2; assay type: cell-based; details: inhibition of forskolin (100 μM) stimulated cAMP, normalized to quinpirole; compound conc ≥10× Ki (per compound); mean ± S.E.M.
Sequence of human D2 dopamine receptors (P14416 whole entry): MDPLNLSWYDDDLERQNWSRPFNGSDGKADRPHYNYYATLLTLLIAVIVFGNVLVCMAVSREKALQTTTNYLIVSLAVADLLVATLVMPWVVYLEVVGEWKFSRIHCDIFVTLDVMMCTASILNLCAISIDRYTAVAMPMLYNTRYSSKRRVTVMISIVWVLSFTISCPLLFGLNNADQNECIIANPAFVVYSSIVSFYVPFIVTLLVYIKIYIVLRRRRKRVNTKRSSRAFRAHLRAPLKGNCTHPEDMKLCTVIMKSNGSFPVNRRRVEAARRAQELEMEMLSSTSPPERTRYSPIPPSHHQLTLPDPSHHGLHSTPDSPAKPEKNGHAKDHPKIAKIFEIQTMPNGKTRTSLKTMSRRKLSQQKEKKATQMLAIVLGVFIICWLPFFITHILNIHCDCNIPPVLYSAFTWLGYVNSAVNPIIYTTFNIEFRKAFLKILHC
Method: The intrinsic activity of the compounds was evaluated by determining their ability to inhibit forskolin-dependent (100 μM) stimulation of adenylyl cyclase activity using a whole cell assay. A whole cell-cyclic AMP accumulation assay was performed with stably transfected HEK cells expressing human D2 or D3 dopamine receptors. This assay is an adaptation of an earlier published method (Su et al., Cyclic Nucleotide Res. 1976, 2, 257-285). Details regarding this method have been published (Chu, W. et al. Bioorg. Med. Chem. 2005, 13, 77-87; Taylor, M. et al. Synapse 2010, 64, 251-266). Confluent (60-80%) HEK cells transfected with recombinant D2-like dopamine receptors were grown in DMEM/10% fetal calf serum containing geneticin in […] flasks. The endogenous ATP pool is radioactively labeled by preincubating the cells in serum-free DMEM/25 mM Hepes medium containing 2 μCi/mL of [2,8-^3H]-adenine (20-Ci/mmol) in a 5% CO2 incubator at 37° C. for 75 min. The radioactive medium was removed by aspiration. Serum-free DMEM (5.6 mL) containing 25 mM HEPES, pH 7.4, and 0.1 mM of the phosphodiesterase inhibitor isobutylmethylxanthine was added to the flask. A […] aliquot of cells was removed and added to 50 μL of forskolin (100 μM) and 50 μL of test drug or quinpirole in DMEM-HEPES. The cells were incubated for 20 min at 37° C. (vortexing every 5 min). The reaction was terminated by the addition of 0.5 mL of 10% trichloroacetic acid (w/v) containing 1.0 mM unlabeled cyclic AMP as a recovery standard. Both the [^3H]-cyclic AMP and the [^3H]-ATP fractions were collected following separation using columns of Dowex AG-50W-X4 and alumina. The final yield of [^3H]-cyclic AMP is corrected for column recovery of unlabeled cyclic AMP determined spectrophotometrically (OD259). The results are reported as percent conversion of [^3H]-ATP into [^3H]-cyclic AMP. The values for the percent inhibition are reported as the actual percent of inhibition of the ^3H-cAMP accumulation relative to the assay performed in the absence of a test compound, minus basal activity. […] The percent maximum response is the value for the inhibition normalized to the value for the full agonist quinpirole.

D2LR = D2LR (Homo sapiens (Human), UniProt P14416); test: β-Arrestin Recruitment Assay, CHO-K1 DRD2L; assay type: cell-based; details: antagonist vs EC80 6 nM Pergolide, CHO-K1 DRD2L cells; read-out: D2 IC50
Sequence of D2LR (P14416 whole entry): as above
Method: (§1) Antagonist potency of the compounds against agonist induced recruitment of β-arrestin by D3R and D2LR was measured using DiscoverRx PathHunter eXpress kits. […] After incubation at 37° C. for 90 min, the DiscoveRx detection reagent was added, the plates were incubated at room temperature for 60 min and the luminescence was measured on a Synergy 4 plate reader (BioTek). The data were plotted and the agonist EC80 values were calculated using GraphPad Prism software. For antagonist activity, the cells were plated as described above and treated with multiple concentrations (starting from 500 nM, half log dilution, 10 dose points) of the test compounds in Plating Reagent with 0.1% DMSO.

[3] = target: T2, human D3 dopamine receptor (Homo sapiens (Human), UniProt P35462); test: Whole Cell Adenylyl Cyclase Assay, D3; assay type: cell-based; details: inhibition of forskolin (100 μM) stimulated cAMP, normalized to quinpirole; compound conc ≥10× Ki (per compound); mean ± S.E.M.
T2 sequence (P35462 whole entry): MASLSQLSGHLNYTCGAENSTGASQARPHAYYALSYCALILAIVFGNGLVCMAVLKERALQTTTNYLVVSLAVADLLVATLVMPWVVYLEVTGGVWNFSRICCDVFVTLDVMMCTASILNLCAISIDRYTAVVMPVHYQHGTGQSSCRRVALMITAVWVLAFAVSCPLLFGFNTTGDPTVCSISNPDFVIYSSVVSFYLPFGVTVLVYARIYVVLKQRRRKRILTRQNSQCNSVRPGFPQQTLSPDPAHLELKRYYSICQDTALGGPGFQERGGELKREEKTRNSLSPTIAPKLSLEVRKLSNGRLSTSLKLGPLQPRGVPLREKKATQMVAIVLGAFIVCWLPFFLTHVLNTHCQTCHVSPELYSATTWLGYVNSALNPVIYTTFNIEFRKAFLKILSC

[4] = target: human D2-long dopamine receptor (Homo sapiens (Human), UniProt P14416); test: Radioligand binding (125I-IABN competition), D2; details: HEK cell membranes expressing human D2-long
Sequence of human D2-long dopamine receptor (P14416 whole entry): as the sequence (P14416 whole entry) above
Method: (§2) The affinities of the target compounds were determined using radioligand binding experiments. […] Competition curves were modeled for a single site. Data from competition dose-response curves were analyzed using Tablecurve program (Jandel). IC50 values were converted to equilibrium dissociation constants (Ki values) using the Cheng and Prusoff correction.

D3R [5] = target: T1, D3R; test: β-Arrestin Recruitment Assay, U2OS DRD3; assay type: cell-based; details: for IC50: antagonist vs EC80 8 nM PD128907, U2OS DRD3 cells, read-out: D3 IC50; for D2 IC50/D3 IC50: ratio of β-arrestin IC50 values
Method: as §1

[6] = target: T2, human D3 dopamine receptor; test: Radioligand binding (125I-IABN competition), D3; details: for Ki: 125I-IABN competition, HEK cell membranes expressing human D3; for D2/D3 (D3 selectivity ratio, D2 Ki/D3 Ki): calculated D2 Ki/D3 Ki
Method: as §2

T1 sequence (P35462 whole entry): as the sequence (P35462 whole entry) above
Sequence of human D2 receptors (P14416 whole entry): as the sequence (P14416 whole entry) above

SMILES	EC50 (human D2 receptors; CHOp-D2 cells, stimulation of mitogenesis, read-out: D2 Agonist EC50) [nM]	Emax at 10 µM (human D2 receptors; at 10 μM, % maximum stimulation vs quinpirole (100%), read-out: D2 Agonist Emax) [%]	D2 Antagonist Imax (human D2 receptors; at 10 μM, inhibition of quinpirole stimulation of mitogenesis) [% at 10 μM]	IC50 (human D2 receptors; read-out: D2 Antagonist IC50) [nM]	EC50 (D3R [1]; CHOp-D3 cells, stimulation of mitogenesis, read-out: D3 Agonist EC50) [nM]	Emax at 10 µM (D3R [1]; at 10 μM, % maximum stimulation vs quinpirole (100%), read-out: D3 Agonist Emax) [%]	D3 Antagonist Imax (D3R [1]; inhibition of quinpirole stimulation of mitogenesis) [%]	IC50 (D3R [1]; read-out: D3 Antagonist IC50) [nM]	D2 Cyclase % Inhibition Normalized [2] [%]	IC50 (D2LR) [nM]	D3 Cyclase % Inhibition Normalized [3] [%]	Ki [4] [nM]	IC50 (D3R [5]) [nM]	D2 IC50/D3 IC50 (D3R [5])	Ki [6] [nM]	D2/D3 (D3 selectivity ratio, D2 Ki/D3 Ki) [6]
CC(C)(C)c1nc(N2CCN(CCCCNC(=O)N3CCN(c4ccccc4)CC3)CC2)cc(C(F)(F)F)n1 [Compound 8, N-(4-(4-(2-(tert-Butyl)-6-(trifluoromethyl)pyrimidin-4-yl)piperazin-1-yl)butyl)-4-phenylpiperazine-1-carboxamide]	> 10000	< 1	100	440 ± 160	> 10000	3	88.2	125 ± 37	−4.8 ± 4.1	> 500	60.7 ± 10.7	470 ± 34	6.15 ± 0.33	>81	2.7 ± 0.7	174
COc1ccc2c(c1)CN(C(=O)NCCCCN1CCN(c3cc(C(F)(F)F)nc(C(C)(C)C)n3)CC1)C2 [Compound 40, N-(4-(4-(2-(tert-Butyl)-6-(trifluoromethyl)pyrimidin-4-yl)piperazin-1-yl)butyl)-5-methoxyisoindoline-2-carboxamide]									−39.1 ± 12.5	157 ± 11	30.0 ± 7.9	994 ± 106	0.8 ± 0.24	196	2.3 ± 0.5	432
CC(C)(C)c1nc(N2CCN(CCCCNC(=O)N3CCc4c([nH]c5ccccc45)C3)CC2)cc(C(F)(F)F)n1 [Compound 55]									6.3 ± 4.3	> 500	61.7 ± 6.4	536 ± 118	26.2 ± 10.2	>19	3 ± 0.2	182
CN(C)Cc1c(C(=O)NCCCCN2CCN(c3cc(C(F)(F)F)nc(C(C)(C)C)n3)CC2)nc2ccccn12 [Compound 120, N-(4-(4-(2-(tert-Butyl)-6-(trifluoromethyl)pyrimidin-4-yl)piperazin-1-yl)butyl)-3-((dimethylamino)methyl)imidazo[1,2-a]pyridine-2-carboxamide]									8.9 ± 5.0	217 ± 10	47.4 ± 4.4	301	7.2 ± 3.68	30	28.8 ± 6.1	10
